From US10568868B2, “Methods and compositions for treating metabolic reprogramming disorders” (THE JOHNS HOPKINS UNIVERSITY, priority 2015, dated 2020)
Read-outs that look alike come from different tables or passages of the source.

Assays:
[1] = human microsomes
[2] = test system: EAE; assay: Multiple sclerosis model (EAE, C57BL/6+MOG35-55); assay type: in vivo, mice
Protocol: FIG. 21A and FIG. 21B show the targeting of glutamine metabolism in multiple sclerosis. Animals were immunized for EAE (C57BL/6+MOG35-55). Mice were treated with vehicle or 25 either q.d. from the day of immunization (day 0, left), or b.d. from the time of disease onset (EAE disease score≥1, right).

[3] = test system: 4T1-Luc tumor cells; assay: 4T1-Luc mammary tumor model: myeloid cells, TAM and fibrocytes by flow cytometry; assay type: in vivo, BALB/c mice; settings: 1 mg/kg daily from day 7 to day 17
Protocol: 4T1-Luc tumor cells (0.1 million) were injected into the mammary fat pads of 8-week-old female BALB/c mice. Mice received vehicle (PBS) or 1 mg/kg 25 daily from day 7 to day 17. Anti-PD1 antibody (5 mg/Kg) was administered i.p. on day 5, 8, 12 and 17. Percentages of myeloid-derived suppressor cell (MDSC) from circulating blood were monitored on day 6, 9 and 17 by flow cytometry with CD11b and Ly6C/Ly6G. Granulocytic MDSC (G-MDSC): CD11b+ Ly6g+ Ly6c low Monocytic MDSC (Mo-MDSC): CD11b+ Ly6G-Ly6c Hi.
4T1-Luc tumor cells (0.2 million) were injected into the mammary fat pads of 8-week-old female BALB/c mice. Mice received vehicle (PBS) or 1 mg/kg compound 25 daily from day 7 to day 17. Anti-PD1 antibody (5 mg/Kg) was administered on day 5, 8, 12 and 17. Tumors were evaluated for tumor infiltrating cells on day 21. Cells were seeded on plates and golgi plug 200 ul were added to inhibit cytokine secretion for overnight (no additional stimulation). Tumor associated macrophages markers: Live/CD45+/CD11b+/F4-80+/CD8− for flow cytometry analysis. Macrophages derived from tumor. The cells were incubated with Golgi plug o.n. w/o stim. TAM: Live/CD45+/CD11b+/F4-80+/CD8−.
4T1-Luc tumor cells (0.1 million) were injected into the mammary fat pads of 8-week-old female BALB/c mice. Mice received vehicle (PBS) or 1 mg/kg 25 daily from day 7 to day 17. Anti-PD1 antibody (5 mg/Kg) was administered on day 5, 8, 12 and 17. Tumors were evaluated for tumor infiltrating cells on day 21. Fibrocytes markers: CollagenI+CD11b+CD45+ live were used for flow cytometry analysis.

[4] = pig microsomes
[5] = test system: Neuromyelitis Optica; assay: Neuromyelitis optica model (adoptive transfer of auto-reactive T cells); parameters: species or system mice; settings: mouse, in vivo
Protocol: Auto-reactive T cells were adoptively transferred into mice treated with PBS or 25 and mean paralysis scores were measured.

[6] = test system: mouse model of asthma; assay: Mouse model of asthma (House Dust Mite antigen sensitization and rechallenge); assay type: in vivo, mice; settings: treated upon intratracheal rechallenge
Protocol: Mice were sensitized to House Dust Mite antigen (HDM) in the absence of drug. Upon intratracheal rechallenge the mice were treated with vehicle or 25.

In the case of CCOC(=O)[C@H](CCC(=O)C=[N+]=[N-])NC(=O)[C@@H](N)CC(C)C [Compound 25], the liver microsomal stability [1] was “moderate-high stability”, the “EAE disease, treatment” value ([2]; b.d. from the time of disease onset (EAE disease score≥1)) was “unexpected effectiveness” and the “EAE disease, prevention” value ([2]; q.d. from the day of immunization (day 0)) was “unexpected effectiveness”. The “CD11b+ cells and G-MDSCs in circulating blood” value ([3]; anti-PD1 antibody also given) was “reduced CD11b+ cells and G-MDSCs”, the “TNF alpha in tumor associated macrophages” value ([3]; tumors evaluated day 21) was “increased TNF alpha” and the tumor infiltrating fibrocytes ([3]; tumors evaluated day 21) was “reduced fibrocytes”. The liver microsomal stability [4] was “moderate-high stability”, the mean paralysis scores [5] was “unexpected effectiveness” and the “levels of HDM specific IgE” value [6] was “reduced”. The lung pathology [6] was “inhibited pathology” and the “recruitment/generation of Th2 cells” value [6] was “inhibited”.
